# Assay results published in patent publication US20240270758A1, “PYRIDINO-OR PYRIMIDO-CYCLIC COMPOUND, PREPARATION METHOD THEREFOR AND MEDICAL USE THEREOF” (Genfleet Therapeutics (Shanghai) Inc., priority 2021, published 2024).
# Experiments:
# [1] = target: KRAS^G12D mutant protein binding to RBD region fragment of RAF1 protein (Homo sapiens (Human), UniProt P01116, G12D); experiment: KRAS-RAF1 binding assay (HTRF), KRAS G12D; conditions: His-KRAS^G12D, GST-RAF1-RBD, GTP
# Description: (§1) GST-RAF1-RBD was purchased from BPS Bioscience; Cat. NO.: 100519; KRAS^G12D was purchased from BPS Bioscience; Cat. NO.: 100623; KRAS^wt was purchased from Reactionbiology; GTP was purchased from Sigma; Cat. NO.: G8877; Mab Anti GST-XL665 was purchased from cisbio; Cat. NO.: 61GSTXLF; Eu-W1024-anti-6×HIS was purchased from PE; Cat. NO.: AD0111; ProxiPlate-384-Plates was purchased from PerkinElmer; Cat. NO.: 6008289; DMSO was purchased from VWR AMRESCO; Cat. NO.: 0231-500ML; microplate reader was purchased from PerkinElmer; Cat. NO.: Envison;
# (§2) This experiment is intended to investigate the inhibitory effect of compounds on the binding of KRAS^G12D mutant protein or KRAS^Wt (wild type) protein to fragments of the RBD region fragment of RAF1 protein. A 500×3-fold gradient concentration stock of compound was prepared using DMSO and diluted 50-fold into a 10× stock of compound using reaction buffer. To the reaction wells of an ELISA plate (ProxiPlate-384-Plates), was first added 3 µL of His-KRAS^G12D protein or KRAS^wt protein, then added 1 μL of 200 µM GTP and incubated for 30 min, then added 2 μL of 10× compound or reaction buffer with 2% DMSO (positive control) and incubated for 30 min, then added 4 μL of GST-RAF1-RBD protein or reaction buffer (negative control) and incubated for 15 min, then added […] anti-His antibody and XL665-labeled anti-GST antibody mixed well in advance and incubated for 60 min before reading HTRF signal by microplate reader. The inhibition ratio of compounds on KRAS protein (G12D mutant or wild type) and RAF1 binding was calculated IR (%)=(positive control signal-compound well signal)/(positive control signal-negative control signal)×100% and IC50 values were calculated by fitting compound concentrations and corresponding inhibition ratios using the Prism 8 four-parameter method. […] While the inhibition IC50 values of the compounds on the binding of KRAS^wt (wild type) protein to the RBD region fragment of RAF1 protein was more than 40 nM or 100 nM, or more than 500 nM, or even more than 1 μM or 2 μM.
# [2] = target: KRAS^wt (wild type) protein binding to RBD region fragment of RAF1 protein (Homo sapiens (Human), UniProt P01116); experiment: KRAS-RAF1 binding assay (HTRF), KRAS wild type; conditions: GST-RAF1-RBD, GTP
# Chain of KRAS^wt (wild type) protein binding to RBD region fragment of RAF1 protein (P01116-2 other isoform, or with tags, fused parts or gaps): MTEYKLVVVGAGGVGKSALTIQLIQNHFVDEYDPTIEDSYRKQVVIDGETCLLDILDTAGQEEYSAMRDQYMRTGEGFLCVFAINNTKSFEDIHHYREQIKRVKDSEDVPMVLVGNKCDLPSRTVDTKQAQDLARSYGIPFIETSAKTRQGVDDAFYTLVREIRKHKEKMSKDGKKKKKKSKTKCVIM
# Description: as §1, §2
# [3] = test system: p-ERK in AGS cells (KRAS^G12D mutation); experiment: Cell p-ERK detection assay; assay type: cell-based, human; conditions: 3 h incubation, HTRF
# In short: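 AGS cells (KRAS G12D, ~20,000/well in F12K+10% FBS) treated next day with compound at 3.16-fold dilutions, 0.1% DMSO final, for 3 h. Lysates assayed for ERK phospho-T202/Y204 by HTRF after 4 h; inhibition vs DMSO and blank, IC50 from four-parameter fit.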
# [4] = test system: AGS cells (KRAS^G12D mutation); experiment: Cell proliferation inhibition assay (3D, CellTiter-Glo), AGS; assay type: cell-based, human; conditions: 3D cell model, 5 days
# In short: (§3)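 3D spheroids of AsPC-1 (800 cells/well, RPMI-1640) or AGS (400 cells/well, F-12K), 10% FBS, seeded overnight, then exposed 5 days to 3.16-fold compound dilutions (0.1% DMSO final). CellTiter-Glo 3D luminescence gives inhibition relative to DMSO and medium blanks; IC50 from four-parameter fit.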
# [5] = test system: AsPC-1 cells (KRAS^G12D mutation); experiment: Cell proliferation inhibition assay (3D, CellTiter-Glo), AsPC-1; assay type: cell-based, human; conditions: 3D cell model, 5 days
# In short: as §3
# [6] = Mice pharmacokinetic evaluation experiment; assay type: in vivo; conditions: male, ICR, mouse, mice plasma; for Vd / half-life: IV 1 mg/kg; for AUC / Cmax: PO 100 mg/kg
# Excerpt: Purpose of the experiment: male ICR mice were used as test animals to determine the drug concentration in plasma at different time points after intravenous and intragastric administration of test compounds by LC/MS/MS method. The pharmacokinetic behavior of the test compound in mice was studied to evaluate its pharmacokinetic characteristics.
# Experimental protocol: laboratory animals: twelve healthy adult male ICR mice, weighing about 30 g, were randomly divided into two groups, 6 mice in IV group and 6 mice in PO group, N=3/time point, with semi-continuous blood collection. Animals were purchased from Vital River Laboratory Animal Technology Co., Ltd.
# Drug preparation: IV group: taking 10 mL sample solution as an example, weighing 2 mg sample, followed by adding 0.5 mL DMSO, […], then adding […] HP-β-CD, finally dilute to 10 mL with water, stirring and ultrasound to reach 0.2 mg/mL clear state. PO group: weighing an appropriate amount of samples and preparing them according to the solvent ratio of the IV group, and evenly reaching the state of 10 mg/mL after stirring and ultrasound. Administration: after fasting for one night, intravenous administration was performed in the IV group, with an administration volume of 5 mL/kg and a dose of 1 mg/kg: the PO group was administered intragastrically a dose volume of 10 mL/kg and a dose of 100 mg/kg.
# Experimental operation: after the test compounds were administered to the male ICR mice in the intravenous injection group and the intragastric administration group, the blood 110 ul were collected at time points of 0.25, 0.5, 1, 2, 4, 7, and 24 h, and stored in a commercial anticoagulant tube pre-filled with K2EDTA. The plasma was separated by centrifugation for 15 min and stored at −70° C. Animals were fed 4 h after administration. The plasma levels of test compounds following intravenous and intragastric administration in mice were determined by LC/MS/MS method. The linear range of the method was 1-3000 ng/ml; Plasma samples were analyzed after treatment with acetonitrile precipitated protein.
# Chain of KRAS^G12D mutant protein binding to RBD region fragment of RAF1 protein (P01116-2 other isoform, or with tags, fused parts or gaps G12D): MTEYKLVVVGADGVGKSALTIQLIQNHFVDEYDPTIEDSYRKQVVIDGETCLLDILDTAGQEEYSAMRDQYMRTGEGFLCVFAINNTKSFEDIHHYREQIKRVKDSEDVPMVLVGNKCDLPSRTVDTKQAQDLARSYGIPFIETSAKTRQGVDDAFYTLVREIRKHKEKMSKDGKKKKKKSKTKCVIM
SMILES,IC50 [1] [nM],IC50 [2] [nM],"IC50 ([3]; Homo sapiens, AGS, 3 h) [nM]","IC50 ([4]; Homo sapiens, AGS, 120 h) [nM]","IC50 ([5]; Homo sapiens, ASPC1, 120 h) [nM]",Vd [6] [L/kg],half-life [6] [h],AUC [6] [ng·h/mL],Cmax [6] [ng/mL],IC50 [3] [nM],IC50 [4] [nM],IC50 [5] [nM]
"C=C1CN2CCCC2(COc2nc(N3C[C@H]4CC[C@@H](C3)N4)c3cnc(-c4cc(O)cc5cccc(CC)c45)c(F)c3n2)C1 (stereo partly drawn) [Example Z11, 4-(4-((1R,5S)-3,8-diazabicyclo[3.2.1]octan-3-yl)-8-fluoro-2-((2-methylenetetrahydro-1H-pyrrolizin-7a(5H)-yl)methoxy)pyrido[4,3-d]pyrimidin-7-yl)-5-ethylnaphthalen-2-ol]",45.9,263,4.91,2.5,50.6,,,,,,,
"C#Cc1c(F)ccc2cc(O)cc(-c3ncc4c(N5CC6CCC(C5)N6)nc(OC[C@@]56CCCN5C[C@H](F)C6)nc4c3F)c12 [MRTX1133, reference compound]",,,,,,14.1,5.15,745,279,,,
"C#Cc1cccc2cc(O)cc(-c3ncc4c(N5C[C@H]6CC[C@@H](C5)N6)nc(OCC56CC(=C)CN5CC(F)C6)nc4c3F)c12 (stereo partly drawn) [Example Z17, 4-(4-((1R,5S)-3,8-diazabicyclo[3.2.1]octan-3-yl)-8-fluoro-2-((2-fluoro-6-methylenetetrahydro-1H-pyrrolizine 7a(5H)-yl)methoxy)pyrido[4,3-d]pyrimidin-7-yl)-5-ethynylnaphthalen-2-ol]",50,64.3,1.16,6.8,35.7,,,,,,,
C#Cc1c(F)ccc2cc(O)cc(-c3ncc4c(N5C[C@H]6CC[C@@H](C5)N6)nc(OCC56CCCN5CC(=C)C6)nc4c3F)c12 (stereo partly shown) [Example Z3],16.2,64.5,,,,,,,,2.11,3,16
"C#Cc1cccc2cc(O)cc(-c3ncc4c(N5C[C@H]6CC[C@@H](C5)N6)nc(OCC56CCN5CC(=C)C6)nc4c3F)c12 (stereo partly drawn) [Example Z19, 4-(4-((1R,5S)-3,8-diazabicyclo[3.2.1]octan-3-yl)-8-fluoro-2-((3-methylene-1-azabicyclo[3.2.0]heptan-5-yl)methoxy)pyrido[4,3-d]pyrimidin-7-yl)-5-ethynylnaphthalen-2-ol]",46,67.8,9.03,31.7,68.3,,,,,,,
"C#Cc1c(F)ccc2cc(O)cc(-c3ncc4c(N5C[C@H]6CC[C@@H](C5)N6)nc(OC[C@]56CCCN5CC(=C)C6)nc4c3F)c12 (single isomer, unassigned) [Example Z13]",53.6,101,11,13,67.2,,,,,,,
"C#Cc1cccc2cc(O)cc(-c3ncc4c(N5C[C@H]6C=C[C@@H](C5)N6)nc(OC[C@@]56CCCN5C[C@H](F)C6)nc4c3F)c12 [Example Z7, 4-(4-((1R,5S)-3,8-diazabicyclo[3.2.1]oct-6-en-3-yl)-8-fluoro-2-(((2R,7aS)-2-fluorotetrahydro-1H-pyrrolizin-7a(5H)-yl)methoxy)pyrido[4,3-d]pyrimidin-7-yl)-5-ethynylnaphthalen-2-ol]",72.6,1030,12,32.6,433,,,,,,,
"C#Cc1cccc2cc(O)cc(-c3ncc4c(N5C[C@H]6CC[C@@H](C5)N6)nc(OCC56CCCN5CC=C6CC)nc4c3F)c12 (stereo partly drawn) [Example Z16, 4-(4-((1R,5S)-3,8-diazabicyclo[3.2.1]octan-3-yl)-2-((7-ethyl-2,3-dihydro-1H-pyrrolizin-7a(5H)-yl)methoxy)-8-fluoropyrido[4,3-d]pyrimidin-7-yl)-5-ethynylnaphthalen-2-ol]",60.7,> 1000,54.9,92.6,555,,,,,,,
"C#Cc1c(F)ccc2cc(O)cc(-c3ncc4c(N5C[C@H]6CC[C@@H](C5)N6)nc(OCC56CC(=C)CN5CC(=C)C6)nc4c3F)c12 [Example Z194, 4-(4-((1R,5S)-3,8-diazabicyclo[3.2.1]octan-3-yl)-2-((2,6-dimethylenetetrahydro-1H-pyrrolizin-7a(5H)-yl)methoxy)-8-fluoropyrido[4,3-d]pyrimidin-7-yl)-5-ethynyl-6-fluoronaphthalen-2-ol]",,,0.69,1.4,4.6,16.9,11.2,2840,560,,,
"C#Cc1c(F)ccc2cc(O)cc(-c3ccc4c(N5C[C@H]6CC[C@@H](C5)N6)nc(OCC56CCCN5CCC6)nc4c3F)c12 [Example Z9, 4-(4-((1R,5S)-3,8-diazabicyclo[3.2.1]octan-3-yl)-8-fluoro-2-((tetrahydro-1H-pyrrolizin-7a(5H)-yl)methoxy)quinazolin-7-yl)-5-ethynyl-6-fluoronaphthalen-2-ol]",79.6,261,23.7,145,300,,,,,,,
C#Cc1cccc2cc(O)cc(-c3c(F)cc4c(N5C[C@H]6CC[C@@H](C5)N6)nc(OCC56CCCN5CC(=C)C6)nc4c3F)c12 (stereo partly shown) [Example Z20],105,110,,,,,,,,2.86,7.7,9.3
"C#Cc1cccc2cc(O)cc(-c3ncc4c(N5C[C@H]6CC[C@@H](C5)N6)nc(OCC56CCCN5CC(=C(C)C)C6)nc4c3F)c12 (stereo partly drawn) [Example Z14, 4-(4-((1R,5S)-3,8-diazabicyclo[3.2.1]octan-3-yl)-8-fluoro-2-((2-(propan-2-ylidene)tetrahydro-1H-pyrrolizin-7a(5H)-yl)methoxy)pyrido[4,3-d]pyrimidin-7-yl)-5-ethynylnaphthalen-2-ol]",39.6,110,10.1,27.4,143,,,,,,,
